The structures appear in SMILES notation. In brackets after ≈: the same amount, converted by molar mass.

The subject of data set [1] is Influenza virus A/PR/8/34 strain. Kind of data set: Antiviral activity, Virus No. 1 infested MDCK cell. Type of data set: cell-based. To be noted: for IC50: PR/8, MDCK, 48 h, read-out: Inhibitory Concentration (IC50) which inhibited by 50% the denaturation of Virus No. 1 infested MDCK cell; for Quotient of minimum denaturation concentration divided by IC50, Virus No. 1: figures in brackets, MDCK cell, Influenza virus, 2880 min.

A short description of data set [2]: in vitro. Conditions: monkey, vero cells.
In data set [3] the test system is vesicular stomatitis virus (VSV) New Jersey strain. Nature of the data set: microbe, parasite or virus in culture. Conditions: for IC50: Vesicular stomatitis virus, L929, 48 h, read-out: Inhibitory Concentration (IC50) which inhibited by 50% the denaturation of Virus No. 3 infested L-929 cell; for Quotient of minimum denaturation concentration divided by IC50, Virus No. 3: figures in brackets, L-929 cell, VSV, 2880 min. Type of data set: cell-based.

Data set [4] deals with human premyelocytic leukemia cells (HL-60). Nature of the data set: 50% inhibition of propagation of undifferentiated human premyelocytic leukemia HL-60 cells. Type of data set: cell-based. To be noted: 144 h, 6 days incubation, read-out: Activity of test compound to inhibit by 50% the undifferentiated propagation of HL-60 cells (IC50). How it is done: (§1) The human premyelocytic elukemia cells (HL-60 cell) are characterized by the ability to respond to pharmacological inducers of differentiation and can produce the normal granulocytes when they have been differentiated, as described in the "Blood" Vol. 54, No. 3, 713-733 (1979).
(§2) Thus, firstly the cell differentiation-inducing activity of the compound was assayed by the following procedure described in said "Blood". Namely, HL-60 cells were incubated by passing successively through RPMI 1640 media supplemented with 10% FCS (fetal calf serum), followed by adding the test compound at varying concentrations to aliquots of the culture of the HL-60 cells at the logarithmic phase of growth. The HL-60 cells thus incubated were further incubated in the presence of the test compound for 6 days and subsequently fixed to slide glasses. The fixed HL-60 cells were stained with May-Gruenwald-Giemsa's reagent and the morphology of the nuclei in the stained cells was examined to judge which of the cells has been differentiated into the normal granulocytes. Then, the number of the HL-60 cells which had propagated were counted.
As said "IC50 " concentration of the test compound was assumed such concentration of the test compound at which the counted number of the HL-60 cells having propagated was reduced by 50%, as compared to that counted in the control tests where the test compound was not used.

Data set [5] has the same test system. Kind of data set: NBT-reducing ability (differentiation) of HL-60 cells after treatment with test compound. Format: cell-based. To be noted: 0.1% NBT, 37° C., 20 minutes. As for the experimental part:
as §1, §2
Secondly, the another aliquot of the culture of the HL-60 cells which were incubated in the above procedure in the presence of the test compound at its evaluated "IC50 " concentration was centrifuged to collect the cells, which were then diluted with a volume of RPMI 1640 medium supplemented with 10% FCS, to provide a given concentration of the cells. Subsequently, the cells which were diluted with said medium were added and mixed with 0.1% of NBT and then incubated at 37° C. for 20 minutes. The number of the cells which stained black color owing to the involved reduction of NBT and which could be judged to have the ability to reduce NBT was counted.

Data set [6] in a line: in vitro. To be noted: mouse, l-929 cells.
Data set [7] has as its system Newcastle disease virus (NDV) Miyadera strain. Kind of data set: microbe, parasite or virus in culture. Type of data set: cell-based. To be noted: for IC50: avian paramyxovirus 1, 48 h, read-out: Inhibitory Concentration (IC50) which inhibited by 50% the denaturation of Virus No. 2 infested HeLa-Y cell; for Quotient of minimum denaturation concentration divided by IC50, Virus No. 2: figures in brackets, HeLa-Y cell, NDV, 2880 min.

A short description of data set [8]: in vitro. To be noted: dog, mdck.
Data set [9] can be described thus: in vitro. Conditions: human, hela-y cells.
Data set [10] has as its system Herpes simplex virus (HSV) Type 2 196 strain. Kind of data set: Antiviral activity, Virus No. 5 infested Vero cell. Type of data set: cell-based. To be noted: for IC50: 48 h, HSV Type 2, Vero cell, read-out: Inhibitory Concentration (IC50) which inhibited by 50% the denaturation of Virus No. 5 infested Vello cell; for Quotient of minimum denaturation concentration divided by IC50, Virus No. 5: figures in brackets, Vero cell, HSV Type 2.

Data set [11] deals with Vaccinia virus Lister strain. Nature of the data set: organism not typed. Format: cell-based. To be noted: for IC50: 48 h, read-out: Inhibitory Concentration (IC50) which inhibited by 50% the denaturation of Virus No. 4 infested HeLa-Y cell; for Quotient of minimum denaturation concentration divided by IC50, Virus No. 4: figures in brackets, HeLa-Y cell, Vaccinia virus, 2880 min.

Regarding `CN1C(=O)NC2C(C)(C)C(C)(C)C2(F)C1=O` (stereo not shown) [TI-61 Substance, 6-fluoro-4,7,7,8,8-pentamethyl-2,4-diaza-bicyclo{4.2.0}octane-3,5-dione], the IC50 was 188 µg/mL (≈ 824 µM) in data set [1]; 93.8 µg/mL (≈ 411 µM) in [3]; 39 µg/mL (≈ 171 µM) in data set [4]; more than 125 µg/mL in data set [7]; 93.8 µg/mL (≈ 411 µM) in data set [10]; more than 125 µg/mL in data set [11]. Also, the “Quotient of minimum denaturation concentration divided by IC50, Virus No. 1” value in [1] was found to be 1.33. The MCC at 48 h in “in vitro [2]” is 125 µg/mL; in the data set “in vitro [6]” it was 125 µg/mL; in the data set “in vitro [8]”, 250 µg/mL; in the data set “in vitro [9]”, 125 µg/mL. The “Quotient of minimum denaturation concentration divided by IC50, Virus No. 3” value in [3] was determined as 1.33. Further, the “Percent of the number of the cells showing the NBT-reducing ability after treatment with test compound at IC50 concentration” value in [5] stood at 18%. In addition, the “Quotient of minimum denaturation concentration divided by IC50, Virus No. 2” value in [7] is given as less than 1.00. Further, the “Quotient of minimum denaturation concentration divided by IC50, Virus No. 5” value in data set [10] was found to be 1.33. Moreover, the “Quotient of minimum denaturation concentration divided by IC50, Virus No. 4” value in [11] is less than 1.00.
As to `CCN1C(=O)[C@@H]2[C@H](N(CC)C1=O)C(C)(C)C2(C)C` (relative stereo) [TI-16 Substance, 2,4-diethyl-7,7,8,8-tetramethyl-cis-2,4-diaza-bicyclo{4.2.0}octane-3,5-dione], the IC50 in data set [1] was 375 µg/mL (≈ 1490 µM); in [3], more than 500 µg/mL; in data set [4], 17 µg/mL (≈ 67.4 µM); in data set [7] it was more than 250 µg/mL; in data set [10], 375 µg/mL (≈ 1490 µM); in data set [11] it was more than 250 µg/mL. Also, the “Quotient of minimum denaturation concentration divided by IC50, Virus No. 1” value in data set [1] came to 2.67. Also, the MCC at 48 h in “in vitro [2]” is 500 µg/mL; in the data set “in vitro [6]” it was 500 µg/mL; in the data set “in vitro [8]”, 1000 µg/mL; in the data set “in vitro [9]” it was 250 µg/mL. For the same compound, the “Quotient of minimum denaturation concentration divided by IC50, Virus No. 3” value in [3] is given as less than 1.0. The “Percent of the number of the cells showing the NBT-reducing ability after treatment with test compound at IC50 concentration” value in data set [5] is listed as 69%. Also, the “Quotient of minimum denaturation concentration divided by IC50, Virus No. 2” value in [7] was less than 1.0. Besides, in data set [10], the “Quotient of minimum denaturation concentration divided by IC50, Virus No. 5” value stood at 1.33. In addition, the “Quotient of minimum denaturation concentration divided by IC50, Virus No. 4” value in [11] is listed as less than 1.0.
For the compound `CC1(C)O[C@@H]2[C@H](O1)[C@@H](CO)O[C@H]2N1C(=O)NC(=O)C2C1C(C)(C)C2(C)C` (stereo partly drawn) [TI-28 Substance, 7,7,8,8-tetramethyl-2-(2',3'-isopropylidene-ribofuranosyl)-cis-2,4-diaza-bicyclo{4.2.0}octane-3,5-dione], the IC50 in data set [1] is 750 µg/mL (≈ 2040 µM); in data set [3], 1000 µg/mL (≈ 2710 µM); in data set [4], 62.5 µg/mL (≈ 170 µM); in data set [7] it was more than 1000 µg/mL; in data set [10] it was more than 1000 µg/mL; in data set [11] it was more than 1000 µg/mL. Further, the “Quotient of minimum denaturation concentration divided by IC50, Virus No. 1” value in data set [1] amounted to 1.33. Moreover, the MCC at 48 h was more than 1000 µg/mL in the data set “in vitro [2]”, more than 1000 µg/mL in “in vitro [6]”, 1000 µg/mL in “in vitro [8]” and more than 1000 µg/mL in “in vitro [9]”. Also, in [3], the “Quotient of minimum denaturation concentration divided by IC50, Virus No. 3” value was 1.0. Also, the “Percent of the number of the cells showing the NBT-reducing ability after treatment with test compound at IC50 concentration” value in data set [5] worked out at 37%. Besides, the “Quotient of minimum denaturation concentration divided by IC50, Virus No. 5” value in data set [10] is on record as less than 1.0.

For the origin of these results see patent US4939156A (priority 1987, dated 1990).
